Experimental data from publication PMC9848300, “Discovery of novel enasidenib analogues targeting inhibition of mutant isocitrate dehydrogenase 2 as antileukaemic agents” (Journal of Enzyme Inhibition and Medicinal Chemistry, 2023).

Experiments:
SK-MEL-2 = experiment: NCI 60 antitumor screening (single dose / five doses); assay type: cell-based; conditions: Homo sapiens; SK-MEL-2 (melanoma), single dose 10 μM; read-out: Growth inhibition percentage (GI %)
SW-620 = experiment: as above; assay type: cell-based, human; conditions: Homo sapiens; SW-620 (colon cancer), single dose 10 μM; read-out: Growth inhibition percentage (GI %)
MDA-MB-231/ATCC = experiment: as above; assay type: cell-based; conditions: Homo sapiens; MDA-MB-231/ATCC (breast cancer), single dose 10 μM; read-out: Growth inhibition percentage (GI %)
SF-295 = experiment: as above; assay type: cell-based; conditions: Homo sapiens; SF-295 (CNS cancer), single dose 10 μM; read-out: Growth inhibition percentage (GI %)
UO-31 = experiment: as above; assay type: cell-based; conditions: Homo sapiens; UO-31 (renal cancer), single dose 10 μM; read-out: Growth inhibition percentage (GI %)
RPMI-8226 = experiment: as above; assay type: cell-based; conditions: Homo sapiens; RPMI-8226 (leukaemia), single dose 10 μM; read-out: Growth inhibition percentage (GI %)
MDA-MB-435 = experiment: as above; assay type: cell-based; conditions: Homo sapiens; MDA-MB-435 (melanoma), single dose 10 μM; read-out: Growth inhibition percentage (GI %)
LOX IMVI = experiment: as above; assay type: cell-based; conditions: Homo sapiens; LOX IMVI (melanoma), single dose 10 μM; read-out: Growth inhibition percentage (GI %)
HOP-92 = experiment: as above; assay type: cell-based; conditions: Homo sapiens; HOP-92 (non-small cell lung cancer), single dose 10 μM; read-out: Growth inhibition percentage (GI %)
RXF 393 = experiment: as above; assay type: cell-based; conditions: Homo sapiens; RXF 393 (renal cancer), single dose 10 μM; read-out: Growth inhibition percentage (GI %)
UACC-62 = experiment: as above; assay type: cell-based; conditions: Homo sapiens; UACC-62 (melanoma), single dose 10 μM; read-out: Growth inhibition percentage (GI %)
HCT-15 = experiment: as above; assay type: cell-based; conditions: Homo sapiens; HCT-15 (colon cancer), single dose 10 μM; read-out: Growth inhibition percentage (GI %)
BT-549 = experiment: as above; assay type: cell-based; conditions: Homo sapiens; BT-549 (breast cancer), single dose 10 μM; read-out: Growth inhibition percentage (GI %)
EKVX = experiment: as above; assay type: cell-based; conditions: Homo sapiens; EKVX (non-small cell lung cancer), single dose 10 μM; read-out: Growth inhibition percentage (GI %)
SR = experiment: as above; assay type: cell-based; conditions: Homo sapiens; SR (leukaemia), single dose 10 μM; read-out: Growth inhibition percentage (GI %)
A498 = experiment: as above; assay type: cell-based; conditions: Homo sapiens; A498 (renal cancer), single dose 10 μM; read-out: Growth inhibition percentage (GI %)
HCC-2998 = experiment: NCI 60 antitumor screening (single dose); assay type: cell-based; conditions: Homo sapiens; HCC-2998 (colon cancer), single dose 10 μM; read-out: Growth inhibition percentage (GI %)
Procedure, shortened: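 The panel mean likewise comes from single-dose (10 μM) NCI 60-line testing, with inhibition expressed as 100 − G%.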

SNB-19 = experiment: NCI 60 antitumor screening (single dose); assay type: cell-based; conditions: Homo sapiens; SNB-19 (CNS cancer), single dose 10 μM; read-out: Growth inhibition percentage (GI %)
Procedure, shortened: (§1)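 Assessment used the first tier of the NCI 60 screen, one dose of 10 μM per compound. Triplicate experiments gave percent growth of treated cells. Inhibition was then derived as 100 − G%.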

TK-10 = experiment: NCI 60 antitumor screening (single dose); assay type: cell-based; conditions: Homo sapiens; TK-10 (renal cancer), single dose 10 μM; read-out: Growth inhibition percentage (GI %)
Procedure, shortened: as §1

MDA-MB-468 = experiment: NCI 60 antitumor screening (single dose / five doses); assay type: cell-based; conditions: Homo sapiens; MDA-MB-468 (breast cancer), single dose 10 μM; read-out: Growth inhibition percentage (GI %)
786-0 = experiment: as above; assay type: cell-based; conditions: Homo sapiens, 786-0, 786-0 (renal cancer), single dose 10 μM; read-out: Growth inhibition percentage (GI %)
SF-539 = experiment: as above; assay type: cell-based; conditions: Homo sapiens; SF-539 (CNS cancer), single dose 10 μM; read-out: Growth inhibition percentage (GI %)
COLO 205 = experiment: as above; assay type: cell-based; conditions: Homo sapiens; COLO 205 (colon cancer), single dose 10 μM; read-out: Growth inhibition percentage (GI %)
CCRF-CEM = experiment: as above; assay type: cell-based; conditions: Homo sapiens; CCRF-CEM (leukaemia), single dose 10 μM; read-out: Growth inhibition percentage (GI %)
HCT-116 = experiment: as above; assay type: cell-based; conditions: Homo sapiens; HCT-116 (colon cancer), single dose 10 μM; read-out: Growth inhibition percentage (GI %)
IGROV1 = experiment: as above; assay type: cell-based; conditions: Homo sapiens, IGROV-1; IGROV1 (ovarian cancer), single dose 10 μM; read-out: Growth inhibition percentage (GI %)
NCI/ADR-RES = experiment: as above; assay type: cell-based; conditions: Homo sapiens; NCI/ADR-RES (ovarian cancer), single dose 10 μM; read-out: Growth inhibition percentage (GI %)

| SMILES | inhibition at 10 µM (SK-MEL-2) [%] | inhibition at 10 µM (SW-620) [%] | inhibition at 10 µM (MDA-MB-231/ATCC) [%] | inhibition at 10 µM (SF-295) [%] | inhibition at 10 µM (UO-31) [%] | inhibition at 10 µM (RPMI-8226) [%] | inhibition at 10 µM (MDA-MB-435) [%] | inhibition at 10 µM (LOX IMVI) [%] | inhibition at 10 µM (HOP-92) [%] | inhibition at 10 µM (RXF 393) [%] | inhibition at 10 µM (UACC-62) [%] | inhibition at 10 µM (HCT-15) [%] | inhibition at 10 µM (BT-549) [%] | inhibition at 10 µM (EKVX) [%] | inhibition at 10 µM (SR) [%] | inhibition at 10 µM (A498) [%] | inhibition at 10 µM (HCC-2998) [%] | inhibition at 10 µM (SNB-19) [%] | inhibition at 10 µM (TK-10) [%] | inhibition at 10 µM (MDA-MB-468) [%] | also measured |
| --- | --- | --- | --- | --- | --- | --- | --- | --- | --- | --- | --- | --- | --- | --- | --- | --- | --- | --- | --- | --- | --- |
| O=C(NNc1nc(NNC(=O)c2ccccc2)nc(N2CCOCC2)n1)c1ccccc1 [compound 8d, N'-[4-(morpholin-4-yl)-6-(phenylhydrazido)-1,3,5-triazin-2-yl]benzohydrazide] | -13.4 | -4.44 | -3.73 | -0.06 | 13.3 | -9.42 | -2.63 | 2.21 | -12.8 | 0.99 | 4.98 | -2.67 | -9.45 | 3.9 | 2.07 | -11 | -5.88 | 3.32 | -10.8 | -15.1 | inhibition at 10 µM (786-0): -3.15%; inhibition at 10 µM (SF-539): 2.56%; inhibition at 10 µM (COLO 205): -12.9%; inhibition at 10 µM (CCRF-CEM): -6.05%; inhibition at 10 µM (HCT-116): -3.34%; inhibition at 10 µM (IGROV1): -2.38%; inhibition at 10 µM (NCI/ADR-RES): 1.24% |
| COC(=O)C(Cc1ccccc1)Nc1nc(NC(Cc2ccccc2)C(=O)OC)nc(N2CCOCC2)n1 (stereo not drawn) [compound 8c, Methyl 2-({4-[(1-methoxy-1-oxo-3-phenylpropan-2-yl)amino]-6-(morpholin-4-yl)-1,3,5-triazin-2-yl}amino)-3-phenylpropanoate] | -11 | -11.7 | -2.54 | -7.74 | 18.8 | 1.47 | -4.67 | -5.03 | -18.5 | -12.7 | 9.82 | -6.16 | -11.7 | -4.54 | -0.37 | -7.4 | -9.86 | -3.58 | -3.4 | -7.75 | inhibition at 10 µM (786-0): -0.43%; inhibition at 10 µM (SF-539): 1.99%; inhibition at 10 µM (COLO 205): -4.56%; inhibition at 10 µM (CCRF-CEM): -4.54%; inhibition at 10 µM (HCT-116): 0.81%; inhibition at 10 µM (IGROV1): 1.38%; inhibition at 10 µM (NCI/ADR-RES): -10.6% |
